Experimental data reported in publication PMC6584507 (Scientific Reports, 2019).
≈ marks a conversion by molar mass, not a printed value.

Key:
hTSLP/hTSLPR interaction = biological target: T1, hTSLP/hTSLPR interaction (Homo sapiens, UniProt Q969D9); experiment: ELISA of hTSLP/hTSLPR interaction (FLAG-hTSLP, hTSLPR-His); format: binding; details: for inhibition at 300 µM / inhibition at 1000 µM: read-out: % inhibition (hTSLP-inhibitory activity by ELISA);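 for all read-outs here: His-tagged hTSLPR captured on Ni-NTA plates, compounds plus FLAG-hTSLP incubated 18 h at 4 °C, bound ligand detected with HRP anti-FLAG, OD 450 nm relative to control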
T1 construct: human TSLP28–159 with thrombin cleavage site at C-terminus; thrombin cleavage site (C); 8xHis (from vector pAB-bee-8xHis) (C, cleaved yes); made in house; host or cells: Trichoplusia ni High-Five cells, baculovirus (secreted)
T1 sequence (Q969D9 28-159): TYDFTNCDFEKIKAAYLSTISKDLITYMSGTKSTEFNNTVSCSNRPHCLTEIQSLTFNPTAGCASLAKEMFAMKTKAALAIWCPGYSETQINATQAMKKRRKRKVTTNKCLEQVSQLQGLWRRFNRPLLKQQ

[1] = tested on: pSTAT5 in TSLP-stimulated HMC-1 cells; experiment: Western blot analysis of STAT5 phosphorylation; format: cell-based, human; details: TSLP 20 ng/mL for 2 h
Method: (§1) HMC-1 cells were obtained from the Department of Food Technology and Inflammatory Disease Research Center (Hoseo University, Asan, Chungnam, Korea). Cells were cultured in Iscove’s modified Dulbecco’s medium (IMDM; Hyclone Laboratories Inc, USA) supplemented with 10% FBS and 1% Penicillin-streptomycin (PS; Gibco Industries Inc, USA) and incubated at 37 °C under humidified atmosphere of 95% air and 5% CO2. Recombinant hTSLP was purchased from R&D Systems (Minneapolis, USA).
[…] Activated cells were lysed and separated by 10% sodium dodecyl sulfate-polyacrylamide gel electrophoresis (SDS-PAGE). After electrophoresis, proteins were transferred to nitrocellulose membranes. The membranes were blocked, incubated with primary antibodies (1:700 dilution in PBS with 0.05% Tween-20), and developed using peroxidase-conjugated secondary antibodies (1:3000 dilution in PBS with 0.05% Tween-20). Proteins were visualized by enhanced chemiluminescence (Amersham Bioseciences, Piscataway, NJ, USA) according to the manufacturer’s instructions.

[2] = Kinetic aqueous solubility; format: physicochemical; details: 0.1 M potassium phosphate buffer, kinetic from dmso stock, PBS / phosphate buffer pH 7.4
Method: In brief, 10 mM stock solution of tested compounds was prepared in DMSO. 25 μL of the stock solution was added to a 1-mL uniprep vial containing 475 μL of 0.1 M potassium phosphate buffer (pH 7.4), and was shaken at 800 rpm for 90 min at room temperature. Following shaking, the mixture was filtered by slowly pressing the upper tube of the 1 mL Mini-Uniprep^TM filter (PTFE membrane, 0.45 μm). 250 μL of the filtrate solution was then transferred to a HPLC vial containing equal volume of acetonitrile.

[3] = tested on: STAT5 phosphorylation in hTSLP-stimulated HMC-1 cells; experiment: STAT5 assay (STAT5 phosphorylation, flow cytometry); format: cell-based, human
Method: as §1
Intracellular phospho-STAT5 (pSTAT5) staining method was based on the protocol obtained from the laboratory of Susan Kaech, Department of Immunobiology, Yale University School of Medicine (New Haven, Connecticut, USA). Briefly, HMC-1 cells were seeded in 96-well U-bottom plate at a density of 1 × 10^7 cells/mL and stimulated with 100 ng/mL recombinant hTSLP alone or with 1 for 30 min. After stimulation, cells were fixed with BD Cytofix/Cytoperm (BD Biosciences, USA) solution for 10 min. Fixed cells were then permeabilized with ice-cold methanol for 30 min, and intracellular pSTAT5 was stained with Alexa Fluor 647 mouse anti-STAT5 (pY694; BD Biosciences, USA) (1:10 dilution in FACS buffer) for 30 min. Stained cells were further fixed with BD Cytofix/Cytoperm solution for 10 min and re-suspended in FACS buffer for flow cytometry analysis. Cells were analyzed by a BD LSR Fortessa Flow cytometry (BD Biosciences, USA). FACS data were analyzed using FlowJo software Ver 9. 7. 6 (Tree Star Inc., USA).

| Compound | inhibition at 300 µM (hTSLP/hTSLPR interaction; 0.3 mM) [%] | inhibition at 1000 µM (hTSLP/hTSLPR interaction; 1 mM) [%] | further results |
| --- | --- | --- | --- |
| COc1cccc(O)c1-c1cc(=O)c2c(O)c(OC)c(OC)c(OC)c2o1 [Compound 1d, skullcapflavone II] | < 5 | < 5 |  |
| O=C1CC(c2c(O)cccc2O)Oc2cc(O)cc(O)c21 (centres unmarked) [Compound 1f, 2′,5,6′,7-tetrahydroflavanone] | 14 ± 3.8 | 8.4 ± 5.8 |  |
| O=c1cc(-c2ccccc2)oc2cccc(O)c12 [Compound 3c] | 24.1 ± 5.4 | 16.8 ± 2 |  |
| COc1c(O)cc(O)c2c(=O)cc(-c3ccccc3)oc12 [Compound 1b, wogonin] | < 5 | < 5 |  |
| COc1c(O)cc2oc(-c3ccccc3)cc(=O)c2c1O [KUP-119, oroxylin A] |  |  | % inhibition (hTSLP-inhibitory activity by ELISA) (hTSLP/hTSLPR interaction; 0.3 mM): 1.7 ± 9.0%; % inhibition (hTSLP-inhibitory activity by ELISA) (hTSLP/hTSLPR interaction; 1 mM): 11.6 ± 6.3% |
| O=c1cc(-c2ccccc2)oc2cc(O)ccc12 [Compound 3a] | 16.4 ± 2.7 | 23.3 ± 6.8 |  |
| O=C1CC(c2ccc(O)cc2)Oc2cc(O)cc(O)c21 (centres unmarked) [Compound 7b, 5,7-Dihydroxy-2-(4-hydroxyphenyl)chroman-4-one] |  |  | solubility kinetic at 90 min [2]: 505 µM (≈ 137 µg/mL); hTSLP-inhibitory activity by ELISA, comparison in words (hTSLP/hTSLPR interaction): weaker |
| COc1c(O)cc2oc(-c3ccccc3)cc(=O)c2c1O [Compound 1c, oroxylin A] |  | 11.6 ± 6.3 | % inhibition (hTSLP-inhibitory activity by ELISA) (hTSLP/hTSLPR interaction; 0.3 mM): <5% |
| COc1c(O)ccc(O)c1-c1cc(=O)c2c(O)cc(O)c(OC)c2o1 [Compound 1e, viscidulin III] | 12.8 ± 0.6 | 26.3 |  |
| O=c1cc(-c2ccc(O)cc2)oc2cc(O)cc(O)c12 [Compound 6b, 5,7-Dihydroxy-2-(4-hydroxyphenyl)-4H-chromen-4-one] |  |  | solubility kinetic at 90 min [2]: 486 µM (≈ 131 µg/mL) |
| O=C(O)[C@H]1O[C@@H](Oc2cc3oc(-c4ccccc4)cc(=O)c3c(O)c2O)[C@H](O)[C@@H](O)[C@@H]1O [Compound 1a, baicalin] | 12.1 ± 1.8 | 19.9 ± 0.2 |  |
| O=c1cc(-c2ccccc2)oc2cc(O)cc(O)c12 [Compound 6a, 5,7-Dihydroxy-2-phenyl-4H-chromen-4-one] |  |  | solubility kinetic at 90 min [2]: 30 µM (≈ 7.63 µg/mL) |
| O=C(O)[C@H]1O[C@@H](Oc2cc3oc(-c4ccccc4)cc(=O)c3c(O)c2O)[C@H](O)[C@@H](O)[C@@H]1O [KUP-040, baicalin] |  |  | STAT5 phosphorylation % ([3]; 3 µM): 69.7%; STAT5 phosphorylation % ([3]; 10 μM): 68.8% |
| O=C1CC(c2ccccc2)Oc2cc(O)cc(O)c21 (centres unmarked) [Compound 7a, 5,7-Dihydroxy-2-phenylchroman-4-one] |  |  | solubility kinetic at 90 min [2]: 111 µM (≈ 28.4 µg/mL); hTSLP-inhibitory activity by ELISA, comparison in words (hTSLP/hTSLPR interaction): weaker |
| O=c1cc(-c2ccccc2)oc2ccc(O)cc12 [Compound 3b] | 22.2 ± 2.5 | 38.7 ± 5.3 |  |
| O=C1CC(c2cccc(-c3ccc(O)cc3)c2)Oc2cc(O)cc(O)c21 (centres unmarked) [Compound 11a, 5,7-Dihydroxy-2-(4′-hydroxy-[1,1′-biphenyl]-3-yl)chroman-4-one] |  |  | inhibition of STAT5 phosphorylation, Western blot (in words) ([1]; even at 0.01 μM, HMC-1 cells): strongly inhibited; solubility kinetic at 90 min [2]: 66 µM (≈ 23 µg/mL); IC50 (hTSLP/hTSLPR interaction): 370 µM |
| COc1cc2oc(-c3ccccc3)cc(=O)c2c(OC)c1OC [Compound 2] | < 5 | 12 ± 2.8 |  |

More lines, main results first:

| inhibition at 300 µM (hTSLP/hTSLPR interaction; 0.3 mM) [%] | inhibition at 1000 µM (hTSLP/hTSLPR interaction; 1 mM) [%] | Compound | further results |
| --- | --- | --- | --- |
| > 50 |  | O=c1cc(-c2cccc(-c3ccc(O)cc3)c2)oc2cc(O)c(O)cc12 [Compound 10g, 6,7-Dihydroxy-2-(4′-hydroxy-[1,1′-biphenyl]-3-yl)-4H-chromen-4-one] | inhibition of STAT5 phosphorylation, Western blot (in words) ([1]; HMC-1 cells pretreated): stronger than compound 1; IC50 (hTSLP/hTSLPR interaction): 210 µM |
| > 50 |  | O=c1cc(-c2cccc(-c3ccc([N+](=O)[O-])cc3)c2)oc2cc(O)c(O)cc12 [Compound 10h, 6,7-Dihydroxy-2-(4′-nitro-[1,1′-biphenyl]-3-yl)-4H-chromen-4-one] |  |
| > 50 |  | O=c1cc(-c2cccc(-c3ccccc3)c2)oc2cc(O)c(O)cc12 [Compound 10e, 2-([1,1′-Biphenyl]-3-yl)-6,7-dihydroxy-4H-chromen-4-one] | inhibition of STAT5 phosphorylation, Western blot (in words) ([1]; HMC-1 cells pretreated): stronger than compound 1; IC50 (hTSLP/hTSLPR interaction): 177 µM |
| > 50 |  | O=c1cc(-c2cccc(-c3ccc(O)cc3)c2)oc2cc(O)cc(O)c12 [Compound 10a, 5,7-Dihydroxy-2-(4′-hydroxy-[1,1′-biphenyl]-3-yl)-4H-chromen-4-one] |  |
